Reference: ChEMBL document CHEMBL3885881, “DrugMatrix”

Organism: Rattus norvegicus
Assay: DrugMatrix - Regimen: Daily Repeat
Format: toxicity, organism-based, Sprague-Dawley
Design: regimen Daily Repeat, gender Male, age 6-8 weeks
Conditions: in vivo, sc, 0 mg/kg, route mini-PUMP - SUBCUTANEOUS, dose level Control, vehicle 100 % SALINE; for ABSOLUTE BASOPHIL / ABSOLUTE EOSINOPHIL / ABSOLUTE LYMPHOCYTE / ABSOLUTE MONOCYTE / ABSOLUTE SEGMENTED NEUTROPHIL / BASOPHIL / EOSINOPHIL / ERYTHROCYTE COUNT / HEMATOCRIT / HEMOGLOBIN / LEUKOCYTE COUNT / LYMPHOCYTE / MEAN CORPUSCULAR HEMOGLOBIN / MEAN CORPUSCULAR HEMOGLOBIN CONCENTRATION / MEAN CORPUSCULAR VOLUME / MONOCYTE / NEUTROPHIL / NUCLEATED RED BLOOD CELLS / PLATELET COUNT: tissue Blood; for ALANINE AMINOTRANSFERASE / ALBUMIN / ALKALINE PHOSPHATASE / ASPARTATE AMINOTRANSFERASE / BLOOD UREA NITROGEN / CARBON DIOXIDE / CHLORIDE / CHOLESTEROL / CREATININE / GLUCOSE / LACTATE DEHYDROGENASE / LIPASE / PHOSPHORUS / POTASSIUM / SODIUM / TOTAL BILIRUBIN / TOTAL PROTEIN / URIC ACID: tissue Plasma

C[C@]12CCC(=O)C=C1CC[C@@H]1[C@@H]2[C@@H](O)C[C@]2(C=O)[C@@H](C(=O)CO)CC[C@@H]12 [ALDOSTERONE]
ABSOLUTE BASOPHIL (72 h, time 3 day): 0 CELLS/uL | ABSOLUTE EOSINOPHIL (72 h, time 3 day): 77.17 CELLS/uL | ABSOLUTE LYMPHOCYTE (72 h, time 3 day): 14293.83 CELLS/uL | ABSOLUTE MONOCYTE (72 h, time 3 day): 354 CELLS/uL | ABSOLUTE SEGMENTED NEUTROPHIL (72 h, time 3 day): 1658.33 CELLS/uL | BASOPHIL (72 h, time 3 day): 0% | EOSINOPHIL (72 h, time 3 day): 0.5% | ERYTHROCYTE COUNT (72 h, time 3 day): 6.27 x10E6/uL | HEMATOCRIT (72 h, time 3 day): 36.95% | HEMOGLOBIN (72 h, time 3 day): 13.4 G/DL | LEUKOCYTE COUNT (72 h, time 3 day): 16.38 x10E3/uL | LYMPHOCYTE (72 h, time 3 day): 87.17% | MEAN CORPUSCULAR HEMOGLOBIN (72 h, time 3 day): 21.42 pg | MEAN CORPUSCULAR HEMOGLOBIN CONCENTRATION (72 h, time 3 day): 36.27 G/DL | MEAN CORPUSCULAR VOLUME (72 h, time 3 day): 59.03 fL | MONOCYTE (72 h, time 3 day): 2% | NEUTROPHIL (72 h, time 3 day): 10.33% | NUCLEATED RED BLOOD CELLS (72 h, time 3 day): 0 /100WBC | PLATELET COUNT (72 h, time 3 day): 904.67 x10E3/uL | ALANINE AMINOTRANSFERASE (72 h, time 3 day): 48.33 u/L | ALBUMIN (72 h, time 3 day): 3.82 G/DL | ALKALINE PHOSPHATASE (72 h, time 3 day): 282.33 u/L | ASPARTATE AMINOTRANSFERASE (72 h, time 3 day): 86.83 u/L | BLOOD UREA NITROGEN (72 h, time 3 day): 20.17 mg/dL | CARBON DIOXIDE (72 h, time 3 day): 34.67 mmol/L | CHLORIDE (72 h, time 3 day): 102 MEQ/L | CHOLESTEROL (72 h, time 3 day): 71.5 mg/dL | CREATININE (72 h, time 3 day): 0.2 mg/dL | GLUCOSE (72 h, time 3 day): 136.83 mg/dL | LACTATE DEHYDROGENASE (72 h, time 3 day): 159 u/L | LIPASE (72 h, time 3 day): 9 u/L | PHOSPHORUS (72 h, time 3 day): 10.12 mg/dL | POTASSIUM (72 h, time 3 day): 5.92 MEQ/L | SODIUM (72 h, time 3 day): 147.8 MEQ/L | TOTAL BILIRUBIN (72 h, time 3 day): 0.2 mg/dL | TOTAL PROTEIN (72 h, time 3 day): 6.05 G/DL | URIC ACID (72 h, time 3 day): 1.4 mg/dL | ABSOLUTE BASOPHIL (120 h, time 5 day): 0 CELLS/uL | ABSOLUTE EOSINOPHIL (120 h, time 5 day): 0 CELLS/uL | ABSOLUTE LYMPHOCYTE (120 h, time 5 day): 14257.33 CELLS/uL | ABSOLUTE MONOCYTE (120 h, time 5 day): 326 CELLS/uL | ABSOLUTE SEGMENTED NEUTROPHIL (120 h, time 5 day): 3216.67 CELLS/uL | BASOPHIL (120 h, time 5 day): 0% | EOSINOPHIL (120 h, time 5 day): 0% | ERYTHROCYTE COUNT (120 h, time 5 day): 6.11 x10E6/uL | HEMATOCRIT (120 h, time 5 day): 36.22% | HEMOGLOBIN (120 h, time 5 day): 13.18 G/DL | LEUKOCYTE COUNT (120 h, time 5 day): 17.8 x10E3/uL | LYMPHOCYTE (120 h, time 5 day): 80.5% | MEAN CORPUSCULAR HEMOGLOBIN (120 h, time 5 day): 21.62 pg | MEAN CORPUSCULAR HEMOGLOBIN CONCENTRATION (120 h, time 5 day): 36.42 G/DL | MEAN CORPUSCULAR VOLUME (120 h, time 5 day): 59.37 fL | MONOCYTE (120 h, time 5 day): 1.83% | NEUTROPHIL (120 h, time 5 day): 17.67% | NUCLEATED RED BLOOD CELLS (120 h, time 5 day): 0 /100WBC | PLATELET COUNT (120 h, time 5 day): 1311 x10E3/uL | ALANINE AMINOTRANSFERASE (120 h, time 5 day): 47 u/L | ALBUMIN (120 h, time 5 day): 3.83 G/DL | ALKALINE PHOSPHATASE (120 h, time 5 day): 260.33 u/L | ASPARTATE AMINOTRANSFERASE (120 h, time 5 day): 76.17 u/L | BLOOD UREA NITROGEN (120 h, time 5 day): 14.67 mg/dL | CARBON DIOXIDE (120 h, time 5 day): 31.33 mmol/L | CHLORIDE (120 h, time 5 day): 101.17 MEQ/L | CHOLESTEROL (120 h, time 5 day): 75 mg/dL | CREATININE (120 h, time 5 day): 0.16 mg/dL | GLUCOSE (120 h, time 5 day): 152.67 mg/dL | LACTATE DEHYDROGENASE (120 h, time 5 day): 147.33 u/L | LIPASE (120 h, time 5 day): 9.33 u/L | PHOSPHORUS (120 h, time 5 day): 10.97 mg/dL | POTASSIUM (120 h, time 5 day): 6 MEQ/L | SODIUM (120 h, time 5 day): 145.52 MEQ/L | TOTAL BILIRUBIN (120 h, time 5 day): 0.17 mg/dL | TOTAL PROTEIN (120 h, time 5 day): 5.83 G/DL | URIC ACID (120 h, time 5 day): 1.27 mg/dL | ABSOLUTE BASOPHIL ([…], time 14 day): 0 CELLS/uL | ABSOLUTE EOSINOPHIL ([…], time 14 day): 64.5 CELLS/uL | ABSOLUTE LYMPHOCYTE ([…], time 14 day): 12507.83 CELLS/uL | ABSOLUTE MONOCYTE ([…], time 14 day): 380.33 CELLS/uL | ABSOLUTE SEGMENTED NEUTROPHIL ([…], time 14 day): 2414 CELLS/uL | BASOPHIL ([…], time 14 day): 0% | EOSINOPHIL ([…], time 14 day): 0.5% | ERYTHROCYTE COUNT ([…], time 14 day): 6.1 x10E6/uL | HEMATOCRIT ([…], time 14 day): 35.4% | HEMOGLOBIN ([…], time 14 day): 12.88 G/DL | LEUKOCYTE COUNT ([…], time 14 day): 15.37 x10E3/uL | LYMPHOCYTE ([…], time 14 day): 80.83% | MEAN CORPUSCULAR HEMOGLOBIN ([…], time 14 day): 21.18 pg | MEAN CORPUSCULAR HEMOGLOBIN CONCENTRATION ([…], time 14 day): 36.43 G/DL | MEAN CORPUSCULAR VOLUME ([…], time 14 day): 58.17 fL | MONOCYTE ([…], time 14 day): 2.17% | NEUTROPHIL ([…], time 14 day): 16.5% | NUCLEATED RED BLOOD CELLS ([…], time 14 day): 0.17 /100WBC | PLATELET COUNT ([…], time 14 day): 1016 x10E3/uL | ALANINE AMINOTRANSFERASE ([…], time 14 day): 53.33 u/L | ALBUMIN ([…], time 14 day): 3.93 G/DL | ALKALINE PHOSPHATASE ([…], time 14 day): 319.83 u/L | ASPARTATE AMINOTRANSFERASE ([…], time 14 day): 84 u/L | BLOOD UREA NITROGEN ([…], time 14 day): 15.5 mg/dL | CARBON DIOXIDE ([…], time 14 day): 34 mmol/L | CHLORIDE ([…], time 14 day): 101.83 MEQ/L | CHOLESTEROL ([…], time 14 day): 57 mg/dL | CREATININE ([…], time 14 day): 0.21 mg/dL | GLUCOSE ([…], time 14 day): 182.33 mg/dL | LACTATE DEHYDROGENASE ([…], time 14 day): 104.67 u/L | LIPASE ([…], time 14 day): 9.17 u/L | PHOSPHORUS ([…], time 14 day): 11.12 mg/dL | POTASSIUM ([…], time 14 day): 5.81 MEQ/L | SODIUM ([…], time 14 day): 144.85 MEQ/L | TOTAL BILIRUBIN ([…], time 14 day): 0.18 mg/dL | TOTAL PROTEIN ([…], time 14 day): 5.92 G/DL | URIC ACID ([…], time 14 day): 1.38 mg/dL
